Test results published in PMC9667776 (RSC Medicinal Chemistry, 2022).

Columns and labels:
[1] = test system: 2-epimerase; assay type: binding, B. anthracis
[2] = molecular target: PAK4 (Homo sapiens, UniProt O96013, L310A); assay type: binding
Chain of PAK4 (O96013 300-591 L310A limits assumed): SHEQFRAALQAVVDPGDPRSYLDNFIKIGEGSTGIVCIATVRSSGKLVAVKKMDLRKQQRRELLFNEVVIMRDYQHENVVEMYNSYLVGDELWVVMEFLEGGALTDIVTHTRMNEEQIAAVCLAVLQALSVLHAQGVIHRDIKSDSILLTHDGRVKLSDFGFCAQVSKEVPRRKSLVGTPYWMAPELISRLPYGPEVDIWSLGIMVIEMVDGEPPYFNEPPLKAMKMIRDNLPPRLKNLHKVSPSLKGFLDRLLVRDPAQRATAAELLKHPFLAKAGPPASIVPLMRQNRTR

SMILES | competition with UDP-GlcNAc by LO-NMR [1] | binding by competitive LO-NMR [2]
O=S(=O)(CCCn1cc(CCNS(=O)(=O)c2ccc(Br)cc2Cl)nn1)Nc1ccc(Nc2ccc(C(F)(F)F)nn2)cc1 [compound 4] | competitive with UDP-GlcNAc | 
CNC(=O)c1cnn2ccc(C#N)cc12 [compound 5] |  | consistent with binding to the ATP-binding site
